Reference: the supplement of paper PMC10307832

Tests used:
Assay in all cases: relative viability (nuclei count vs DMSO), 5 days (fraction); higher = more cells survive
[1] = compound: C1CSC2=C(C(=O)N1)SC3=C2C=C(C=C3)O [kb NB 142-70] + CC(C)C[C@H](NC(=O)[C@H](Cc1ccccc1)NC(=O)c1cnccn1)B(O)O [Bortezomib] (partner 0.002 µM)
Method in brief: (§1)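 Relative viability is defined as nuclei in treated wells over nuclei in vehicle wells. Duplicate plates were run and medians reported. Lung cancer cell lines in 1536-well plates were dosed by pin tool one day after seeding, with one drug or with a fixed anchor-drug dose plus five library-drug doses (not always all listed) in √10 steps, and nuclei were counted after 5 days.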

[2] = compound: NCC(=O)Nc1ccc(-n2nc(C(F)(F)F)cc2-c2ccc3c(ccc4ccccc43)c2)cc1 + Cc1nc(Nc2ncc(C(=O)Nc3c(C)cccc3Cl)s2)cc(N2CCN(CCO)CC2)n1 [Dasatinib] (partner 0.075 µM)
Method in brief: as §1

kb NB 142-70 + OSI-027 = compound: C1CSC2=C(C(=O)N1)SC3=C2C=C(C=C3)O [kb NB 142-70] + COc1cccc2cc(-c3nc([C@H]4CC[C@H](C(=O)O)CC4)n4ncnc(N)c34)[nH]c12 [OSI-027] (partner 0.5 µM)
Method in brief: as §1

[3] = compound: C1CSC2=C(C(=O)N1)SC3=C2C=C(C=C3)O [kb NB 142-70] + CS(=O)(=O)N1CCN(Cc2cc3nc(-c4cccc5[nH]ncc45)nc(N4CCOCC4)c3s2)CC1 [Pictilisib] (partner 1 µM)
Method in brief: as §1

kb NB 142-70 + Olaparib = compound: C1CSC2=C(C(=O)N1)SC3=C2C=C(C=C3)O [kb NB 142-70] + O=C(c1cc(Cc2n[nH]c(=O)c3ccccc23)ccc1F)N1CCN(C(=O)C2CC2)CC1 [Olaparib] (partner 8 µM)
Method in brief: as §1

NCI-H23 gave a relative viability ([1]; first compound 0.1 µM) of 1.1, a relative viability ([1]; first compound 1 µM) of 0.896 and a relative viability ([1]; first compound 3.162 µM) of 0.516. For the same cell line, the relative viability ([2]; first compound 0.02 µM) was 0.885, the relative viability ([2]; first compound 0.06325 µM) was 0.781 and the relative viability ([2]; first compound 0.2 µM) was 0.825. For the same cell line, the relative viability ([2]; first compound 0.6325 µM) was 0.73, the relative viability ([2]; first compound 2 µM) was 0.832 and the relative viability (kb NB 142-70 + OSI-027; first compound 0.1 µM) was 0.632. The relative viability (kb NB 142-70 + OSI-027; first compound 1 µM) was 0.572, the relative viability (kb NB 142-70 + OSI-027; first compound 3.162 µM) was 0.412 and the relative viability ([3]; first compound 0.1 µM) was 0.517. For the same cell line, the relative viability ([3]; first compound 1 µM) was 0.42, the relative viability ([3]; first compound 3.162 µM) was 0.293 and the relative viability (kb NB 142-70 + Olaparib; first compound 0.1 µM) was 0.314. The relative viability (kb NB 142-70 + Olaparib; first compound 1 µM) was 0.318 and the relative viability (kb NB 142-70 + Olaparib; first compound 3.162 µM) was 0.241.
NCI-H322M showed a relative viability ([1]; first compound 0.1 µM) of 1.2, a relative viability ([1]; first compound 1 µM) of 1.25 and a relative viability ([1]; first compound 3.162 µM) of 1.3. It also gave a relative viability ([2]; first compound 0.02 µM) of 0.268, a relative viability ([2]; first compound 0.06325 µM) of 0.266 and a relative viability ([2]; first compound 0.2 µM) of 0.251. It also gave a relative viability ([2]; first compound 0.6325 µM) of 0.271, a relative viability ([2]; first compound 2 µM) of 0.261 and a relative viability (kb NB 142-70 + OSI-027; first compound 0.1 µM) of 0.489. For the same cell line, the relative viability (kb NB 142-70 + OSI-027; first compound 1 µM) was 0.551, the relative viability (kb NB 142-70 + OSI-027; first compound 3.162 µM) was 0.498 and the relative viability ([3]; first compound 0.1 µM) was 0.54. For the same cell line, the relative viability ([3]; first compound 1 µM) was 0.561, the relative viability ([3]; first compound 3.162 µM) was 0.504 and the relative viability (kb NB 142-70 + Olaparib; first compound 0.1 µM) was 0.777. For the same cell line, the relative viability (kb NB 142-70 + Olaparib; first compound 1 µM) was 0.795 and the relative viability (kb NB 142-70 + Olaparib; first compound 3.162 µM) was 0.621.
NCI-H441 gave a relative viability ([1]; first compound 0.1 µM) of 0.323, a relative viability ([1]; first compound 1 µM) of 0.793 and a relative viability ([1]; first compound 3.162 µM) of 0.307. It also gave a relative viability ([2]; first compound 0.02 µM) of 0.444, a relative viability ([2]; first compound 0.06325 µM) of 0.665 and a relative viability ([2]; first compound 0.2 µM) of 0.729. The relative viability ([2]; first compound 0.6325 µM) was 0.548, the relative viability ([2]; first compound 2 µM) was 0.681 and the relative viability (kb NB 142-70 + OSI-027; first compound 0.1 µM) was 0.556. The relative viability (kb NB 142-70 + OSI-027; first compound 1 µM) was 0.58, the relative viability (kb NB 142-70 + OSI-027; first compound 3.162 µM) was 0.277 and the relative viability ([3]; first compound 0.1 µM) was 0.497. For the same cell line, the relative viability ([3]; first compound 1 µM) was 0.429, the relative viability ([3]; first compound 3.162 µM) was 0.305 and the relative viability (kb NB 142-70 + Olaparib; first compound 0.1 µM) was 0.631. The relative viability (kb NB 142-70 + Olaparib; first compound 1 µM) was 0.533 and the relative viability (kb NB 142-70 + Olaparib; first compound 3.162 µM) was 0.22.
NCI-H460 was tested, and the relative viability ([1]; first compound 0.1 µM) was 1.05, the relative viability ([1]; first compound 1 µM) was 1.08 and the relative viability ([1]; first compound 3.162 µM) was 0.608. It also gave a relative viability ([2]; first compound 0.02 µM) of 0.425, a relative viability ([2]; first compound 0.06325 µM) of 0.597 and a relative viability ([2]; first compound 0.2 µM) of 0.543. For the same cell line, the relative viability ([2]; first compound 0.6325 µM) was 0.494, the relative viability ([2]; first compound 2 µM) was 0.547 and the relative viability (kb NB 142-70 + OSI-027; first compound 0.1 µM) was 0.677. The relative viability (kb NB 142-70 + OSI-027; first compound 1 µM) was 0.576, the relative viability (kb NB 142-70 + OSI-027; first compound 3.162 µM) was 0.315 and the relative viability ([3]; first compound 0.1 µM) was 0.363. For the same cell line, the relative viability ([3]; first compound 1 µM) was 0.323, the relative viability ([3]; first compound 3.162 µM) was 0.274 and the relative viability (kb NB 142-70 + Olaparib; first compound 0.1 µM) was 0.396. It also gave a relative viability (kb NB 142-70 + Olaparib; first compound 1 µM) of 0.509 and a relative viability (kb NB 142-70 + Olaparib; first compound 3.162 µM) of 0.526.
Cell Line NCI-H520 has a relative viability ([1]; first compound 0.1 µM) of 0.52, a relative viability ([1]; first compound 1 µM) of 0.541 and a relative viability ([1]; first compound 3.162 µM) of 0.277. It also gave a relative viability ([2]; first compound 0.02 µM) of 0.207, a relative viability ([2]; first compound 0.06325 µM) of 0.206 and a relative viability ([2]; first compound 0.2 µM) of 0.177. The relative viability ([2]; first compound 0.6325 µM) was 0.213, the relative viability ([2]; first compound 2 µM) was 0.212 and the relative viability (kb NB 142-70 + OSI-027; first compound 0.1 µM) was 0.262. For the same cell line, the relative viability (kb NB 142-70 + OSI-027; first compound 1 µM) was 0.226, the relative viability (kb NB 142-70 + OSI-027; first compound 3.162 µM) was 0.25 and the relative viability ([3]; first compound 0.1 µM) was 0.297. The relative viability ([3]; first compound 1 µM) was 0.282, the relative viability ([3]; first compound 3.162 µM) was 0.165 and the relative viability (kb NB 142-70 + Olaparib; first compound 0.1 µM) was 0.377. For the same cell line, the relative viability (kb NB 142-70 + Olaparib; first compound 1 µM) was 0.35 and the relative viability (kb NB 142-70 + Olaparib; first compound 3.162 µM) was 0.228.
For NCI-H596, the relative viability ([1]; first compound 0.1 µM) was 1, the relative viability ([1]; first compound 1 µM) was 1.07 and the relative viability ([1]; first compound 3.162 µM) was 0.954. It also gave a relative viability ([2]; first compound 0.02 µM) of 0.626, a relative viability ([2]; first compound 0.06325 µM) of 0.66 and a relative viability ([2]; first compound 0.2 µM) of 0.591. The relative viability ([2]; first compound 0.6325 µM) was 0.6, the relative viability ([2]; first compound 2 µM) was 0.652 and the relative viability (kb NB 142-70 + OSI-027; first compound 0.1 µM) was 0.931. For the same cell line, the relative viability (kb NB 142-70 + OSI-027; first compound 1 µM) was 0.773, the relative viability (kb NB 142-70 + OSI-027; first compound 3.162 µM) was 0.509 and the relative viability ([3]; first compound 0.1 µM) was 0.399. The relative viability ([3]; first compound 1 µM) was 0.351, the relative viability ([3]; first compound 3.162 µM) was 0.352 and the relative viability (kb NB 142-70 + Olaparib; first compound 0.1 µM) was 0.658. For the same cell line, the relative viability (kb NB 142-70 + Olaparib; first compound 1 µM) was 0.579 and the relative viability (kb NB 142-70 + Olaparib; first compound 3.162 µM) was 0.788.
For NCI-H647, the relative viability ([1]; first compound 0.1 µM) was 0.987, the relative viability ([1]; first compound 1 µM) was 0.773 and the relative viability ([1]; first compound 3.162 µM) was 1.06. For the same cell line, the relative viability ([2]; first compound 0.02 µM) was 0.205, the relative viability ([2]; first compound 0.06325 µM) was 0.167 and the relative viability ([2]; first compound 0.2 µM) was 0.227. It also gave a relative viability ([2]; first compound 0.6325 µM) of 0.193, a relative viability ([2]; first compound 2 µM) of 0.208 and a relative viability (kb NB 142-70 + OSI-027; first compound 0.1 µM) of 0.575. It also gave a relative viability (kb NB 142-70 + OSI-027; first compound 1 µM) of 0.568, a relative viability (kb NB 142-70 + OSI-027; first compound 3.162 µM) of 0.601 and a relative viability ([3]; first compound 0.1 µM) of 0.497. It also gave a relative viability ([3]; first compound 1 µM) of 0.474, a relative viability ([3]; first compound 3.162 µM) of 0.408 and a relative viability (kb NB 142-70 + Olaparib; first compound 0.1 µM) of 0.549. The relative viability (kb NB 142-70 + Olaparib; first compound 1 µM) was 0.495 and the relative viability (kb NB 142-70 + Olaparib; first compound 3.162 µM) was 0.539.
Cell Line NCI-H650 has a relative viability ([1]; first compound 0.1 µM) of 0.845, a relative viability ([1]; first compound 1 µM) of 0.719 and a relative viability ([1]; first compound 3.162 µM) of 0.561. For the same cell line, the relative viability ([2]; first compound 0.02 µM) was 0.4, the relative viability ([2]; first compound 0.06325 µM) was 0.479 and the relative viability ([2]; first compound 0.2 µM) was 0.434. For the same cell line, the relative viability ([2]; first compound 0.6325 µM) was 0.377, the relative viability ([2]; first compound 2 µM) was 0.459 and the relative viability (kb NB 142-70 + OSI-027; first compound 0.1 µM) was 0.535. For the same cell line, the relative viability (kb NB 142-70 + OSI-027; first compound 1 µM) was 0.519, the relative viability (kb NB 142-70 + OSI-027; first compound 3.162 µM) was 0.52 and the relative viability ([3]; first compound 0.1 µM) was 1.05. It also gave a relative viability ([3]; first compound 1 µM) of 0.94, a relative viability ([3]; first compound 3.162 µM) of 0.756 and a relative viability (kb NB 142-70 + Olaparib; first compound 0.1 µM) of 0.417. The relative viability (kb NB 142-70 + Olaparib; first compound 1 µM) was 0.374 and the relative viability (kb NB 142-70 + Olaparib; first compound 3.162 µM) was 0.267.
Work on NCI-H661 yielded a relative viability ([1]; first compound 0.1 µM) of 0.808, a relative viability ([1]; first compound 1 µM) of 0.805 and a relative viability ([1]; first compound 3.162 µM) of 0.802. The relative viability ([2]; first compound 0.02 µM) was 0.866, the relative viability ([2]; first compound 0.06325 µM) was 1.01 and the relative viability ([2]; first compound 0.2 µM) was 0.884. It also gave a relative viability ([2]; first compound 0.6325 µM) of 0.943, a relative viability ([2]; first compound 2 µM) of 0.925 and a relative viability (kb NB 142-70 + OSI-027; first compound 0.1 µM) of 0.723. It also gave a relative viability (kb NB 142-70 + OSI-027; first compound 1 µM) of 0.717, a relative viability (kb NB 142-70 + OSI-027; first compound 3.162 µM) of 0.61 and a relative viability ([3]; first compound 0.1 µM) of 0.496. It also gave a relative viability ([3]; first compound 1 µM) of 0.343, a relative viability ([3]; first compound 3.162 µM) of 0.351 and a relative viability (kb NB 142-70 + Olaparib; first compound 0.1 µM) of 0.731. The relative viability (kb NB 142-70 + Olaparib; first compound 1 µM) was 0.733 and the relative viability (kb NB 142-70 + Olaparib; first compound 3.162 µM) was 0.759.
